# Reference: patent US20100137327A1, “NOVEL SEM[…] CARBONYLHYDRAZIDE DERIVATIVES USEFUL AS POTASSIUM CHANNEL MODULATORS” (NeuroSearch A/S, priority 2007, published 2010)
# Target: BK channels heterologously expressed in Xenopus laevis oocytes (Homo sapiens, UniProt Q12791)
# Details: 30 μM compound added after stable current level, step from −40 mV (5 s) to +30 mV (1 s), repeated, FIG. 1
# Description: The electrical current through the BK channel is measured conventional two-electrode voltage clamp. BK current is activated by repeated step protocols. In brief, this protocol goes from a resting membrane potential of −40 mV lasting for 5 s to a depolarised step to +30 mV lasting for 1 s. The protocol was repeated continuously.
# Having reached a stable current level, Compound A (30 μM), was added.
# Sequence of BK channels heterologously expressed in Xenopus laevis oocytes (Q12791 whole entry): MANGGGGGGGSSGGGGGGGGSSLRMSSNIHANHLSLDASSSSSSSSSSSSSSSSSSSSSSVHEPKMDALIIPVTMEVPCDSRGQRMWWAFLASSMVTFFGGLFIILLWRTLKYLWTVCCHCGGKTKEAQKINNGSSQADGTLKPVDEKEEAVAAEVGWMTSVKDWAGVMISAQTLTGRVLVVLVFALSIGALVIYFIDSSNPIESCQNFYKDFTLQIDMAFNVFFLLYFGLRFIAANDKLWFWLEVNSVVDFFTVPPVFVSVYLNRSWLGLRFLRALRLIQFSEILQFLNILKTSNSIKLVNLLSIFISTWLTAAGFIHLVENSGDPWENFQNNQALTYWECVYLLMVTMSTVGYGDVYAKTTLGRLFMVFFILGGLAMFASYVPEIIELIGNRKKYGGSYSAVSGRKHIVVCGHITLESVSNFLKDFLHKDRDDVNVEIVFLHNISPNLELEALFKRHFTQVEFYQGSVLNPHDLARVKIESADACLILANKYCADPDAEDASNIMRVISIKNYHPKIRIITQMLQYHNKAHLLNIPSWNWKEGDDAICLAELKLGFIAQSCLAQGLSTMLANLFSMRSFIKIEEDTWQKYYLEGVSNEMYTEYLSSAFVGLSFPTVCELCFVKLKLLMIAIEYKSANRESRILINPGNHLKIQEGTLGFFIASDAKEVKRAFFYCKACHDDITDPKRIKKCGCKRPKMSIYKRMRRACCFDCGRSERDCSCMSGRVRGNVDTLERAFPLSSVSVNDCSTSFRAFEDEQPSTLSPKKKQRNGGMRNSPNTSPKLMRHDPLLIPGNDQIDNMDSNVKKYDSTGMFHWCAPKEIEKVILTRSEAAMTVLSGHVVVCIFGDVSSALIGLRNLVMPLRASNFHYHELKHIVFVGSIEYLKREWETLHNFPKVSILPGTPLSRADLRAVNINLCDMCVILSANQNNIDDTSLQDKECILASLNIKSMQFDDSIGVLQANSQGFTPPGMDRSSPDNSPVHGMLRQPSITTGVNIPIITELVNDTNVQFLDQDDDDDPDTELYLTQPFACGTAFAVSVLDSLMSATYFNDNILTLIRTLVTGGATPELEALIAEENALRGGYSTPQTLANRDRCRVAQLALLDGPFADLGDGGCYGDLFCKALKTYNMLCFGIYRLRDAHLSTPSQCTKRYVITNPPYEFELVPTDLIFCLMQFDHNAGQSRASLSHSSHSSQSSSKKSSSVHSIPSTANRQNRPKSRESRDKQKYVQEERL
compound,measurement,value
"O=C(NNc1ccc(-c2ccc(C(F)(F)F)cc2)cc1-c1nnn[nH]1)c1cc(C(F)(F)F)cc(C(F)(F)F)c1 [Compound A, 3,5-Bis-trifluoromethyl-benzoic acid N40-[3-(1H-tetrazol-5-yl)-4′-trifluoromethyl-biphenyl-4-yl]-hydrazide]",current activated by depolarisation (BK channel opening activity),marked increase
